Legend:
[1] = tested on: isolated aortic rings pre-contracted with phenylephrine; test: Relaxation of isolated rat aortic rings pre-contracted with phenylephrine; type: cell-based; details: for relaxation as percentage of the maximal phenylephrine-mediated contraction: Example 1; for percentage of relaxation: Example 4A, 100 μM CORM-3
Description: The method for the preparation of isolated aortic rings has been previously described (5; 7). The thoracic aorta was isolated from Sprague-Dawley rats (350-450 g) and flushed with cold Krebs-Henseleit buffer (4° C., pH 7.4) containing (in mM): 118 NaCl, 4.7 KCl, 1.2 KH2PO4, 1.2 MgSO4.7H2O, 22 NaHCO3, 11 Glucose, 0.03 K^+EDTA, 2.5 CaCl2 and supplemented with 10 AM indomethacin. Each aorta was trimmed of adventitial tissue and ring sections (˜3 mm length) were produced from the mid aortic segment. The rings were then mounted between two stainless steel hooks in 9-ml organ baths containing Krebs-Henseleit buffer which was maintained at 37° C. and continuously gassed with 95% O2-5% CO2. One hook was attached to a Grass FT03 isometric force transducer whilst the other was anchored to a sledge for regulation of the resting tension of the aortic ring. The rings were initially equilibrated for 30 min under a resting tension of 2 g which was previously determined to be optimal. Continuous recording of tension was made on a Grass 7D polygraph (Grass Instruments, Quincy, Mass.) in combination with a Biopac MP100 system using AcqKnowledge™ software (Linton Instruments, Norfolk, UK). Before each protocol was carried out, rings were contracted with a standard dose of KCl (100 mM) in order to provide an internal reference and to control for variability in contractile responsiveness between tissues.
The preparation of isolated aortic rings and recording of tension was as in Example 1. Before each protocol was carried out, rings were contracted with a standard dose of KCl (100 mM) in order-to provide an internal reference and to control for variability in contractile responsiveness between tissues. […] An additional set of experiments was performed in which the vascular endothelium was removed from the aortic tissue prior to CORM-3 addition.

[2] = tested on: Myoglobin (Mb); test: Conversion of myoglobin (Mb) to carbon monoxide myoglobin (MbCO), CO release; type: biochemical; details: for conversion of Mb to MbCO: Mb 50 μM, absorption spectrum
Text: This method has been previously developed to monitor and determine the amount of CO released from CO-RMs (7).

[3] = tested on: Lewis rats; test: Effect on mean arterial pressure in anaesthetised rats; type: in vivo, rat
Description: Lewis rats (280-350 g) were anaesthetised by intramuscular injection of 1 ml/kg Hypnorm. Specially designed femoral artery and venous catheters were then surgically implanted as previously described (5; 6) and blood pressure monitored continuously using a polygraph recorder.

[4] = tested on: isolated aortic rings pre-contracted with phenylephrine; details: stated as known; species not given; cited from earlier work
[5] = tested on: Myoglobin (Mb); details: stated as known; cited from earlier work
[6] = tested on: human platelets; details: increased cGMP levels by YC-1 in the presence of CO; literature reference (1); cited from earlier work
[7] = biological target: T1, purified guanylate cyclase (Bos taurus, UniProt P16068); details: in vitro; literature reference (8); cited from earlier work
T1 sequence (P16068 1-619): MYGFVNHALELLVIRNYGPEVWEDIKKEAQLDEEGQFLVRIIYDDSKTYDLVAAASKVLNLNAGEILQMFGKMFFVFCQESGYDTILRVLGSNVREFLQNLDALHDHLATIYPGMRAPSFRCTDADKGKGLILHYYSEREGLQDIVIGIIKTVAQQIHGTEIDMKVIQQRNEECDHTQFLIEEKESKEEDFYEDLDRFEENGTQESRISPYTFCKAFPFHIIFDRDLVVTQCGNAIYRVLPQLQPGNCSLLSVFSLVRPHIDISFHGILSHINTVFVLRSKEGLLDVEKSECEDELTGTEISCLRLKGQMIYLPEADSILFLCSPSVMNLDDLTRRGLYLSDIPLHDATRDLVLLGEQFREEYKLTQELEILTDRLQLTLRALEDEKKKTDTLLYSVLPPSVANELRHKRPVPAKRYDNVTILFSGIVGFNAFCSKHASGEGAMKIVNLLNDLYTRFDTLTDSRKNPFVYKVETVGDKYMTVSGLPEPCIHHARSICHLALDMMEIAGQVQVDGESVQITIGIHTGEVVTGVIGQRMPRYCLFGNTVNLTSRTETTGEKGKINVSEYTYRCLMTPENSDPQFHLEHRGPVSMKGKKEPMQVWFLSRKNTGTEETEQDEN
T1 sequence (P19687 1-691 partner): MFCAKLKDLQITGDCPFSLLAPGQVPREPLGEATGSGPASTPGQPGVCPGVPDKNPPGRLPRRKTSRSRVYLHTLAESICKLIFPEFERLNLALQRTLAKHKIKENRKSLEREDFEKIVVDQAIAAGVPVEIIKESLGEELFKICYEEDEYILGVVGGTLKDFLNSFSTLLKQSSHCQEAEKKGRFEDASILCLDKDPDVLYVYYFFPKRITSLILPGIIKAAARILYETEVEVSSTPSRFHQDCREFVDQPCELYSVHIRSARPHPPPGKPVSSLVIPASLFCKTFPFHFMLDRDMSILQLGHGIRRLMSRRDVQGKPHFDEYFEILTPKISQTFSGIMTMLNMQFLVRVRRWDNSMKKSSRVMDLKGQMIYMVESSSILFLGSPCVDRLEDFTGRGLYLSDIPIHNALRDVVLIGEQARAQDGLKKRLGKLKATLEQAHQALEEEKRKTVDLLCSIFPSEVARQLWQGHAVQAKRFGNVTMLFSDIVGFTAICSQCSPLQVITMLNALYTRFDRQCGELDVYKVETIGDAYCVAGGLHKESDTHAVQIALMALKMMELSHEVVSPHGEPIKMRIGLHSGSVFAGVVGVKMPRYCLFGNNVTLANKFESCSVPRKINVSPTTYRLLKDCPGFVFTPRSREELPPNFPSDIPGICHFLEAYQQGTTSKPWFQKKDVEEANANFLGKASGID

In the case of `NCC(=O)O.[C-]#[O+].[C-]#[O+].[C-]#[O+].[Cl][Ru]` [CORM-3, Ru(CO)3Cl(NH2CH2CO2)], the “relaxation as percentage of the maximal phenylephrine-mediated contraction” value (“relaxation as percentage” for short) ([1]; CORM-3 25 μM, after first addition, presence of YC-1 (5 μM, 30 min pre-incubation)) is reported as 33%, the “relaxation as percentage” value ([1]; CORM-3 25 μM, after second addition, presence of YC-1 (5 μM, 30 min pre-incubation)) is reported as 66.6% and the “relaxation as percentage” value ([1]; CORM-3 25 μM, after third addition, presence of YC-1 (5 μM, 30 min pre-incubation)) is reported as 80.9%. The “relaxation as percentage” value ([1]; CORM-3 25 AM per addition, after first addition, absence of YC-1) was 10.3%, the “relaxation as percentage” value ([1]; CORM-3 25 AM per addition, after second addition, absence of YC-1) was 24.1% and the “relaxation as percentage” value ([1]; CORM-3 25 AM per addition, after third addition, absence of YC-1) was 38%. The relaxation ([1]; Example 3, 100 μM, within few minutes from addition) was “approximately 54%”, the percentage of relaxation ([1]; first addition, in the presence of ODQ (10 μM, 15 min prior)) was 1.0±0.8% and the percentage of relaxation ([1]; first addition, in the presence of glibenclamide (10 μM, 30 min prior)) was 13.2±4.1%. For the same compound, the percentage of relaxation ([1]; first cumulative addition, mean±S.E.M., 6 experiments) was 37.5±5.3%, the percentage of relaxation ([1]; second cumulative addition, mean±S.E.M., 6 experiments) was 48.2±4.4% and the percentage of relaxation ([1]; third cumulative addition, mean±S.E.M., 6 experiments) was 53.9±4.3%. For the same compound, the relaxation ([1]; Example 4B, 25 μM CORM-3, after the third addition, pre-treatment with YC-1 (1 μM, 30 min)) was 77%, the relaxation ([1]; Example 4B, 25 μM CORM-3 alone, after the third addition) was “approximately 31%” and the “effect of YC-1 on CORM-3-mediated relaxation” value ([1]; Example 4B, 50 μM and 100 μM CORM-3, YC-1 1 μM pre-treatment) was “potentiation of relaxation”. The “effect of L-NAME on relaxation at increased CORM-3 concentration” value ([1]; Example 4C, CORM-3 200 and 400 μM, L-NAME present) was “reversed”, the relaxation ([1]; Example 4C, CORM-3 alone, first addition) was “approximately 37%” and the relaxation ([1]; Example 4C, CORM-3 first addition, presence of L-NAME (100 μM) in the organ bath) was 5%. For the same compound, the “response of aortic rings without the endothelium (−E)” value ([1]; Example 4C, endothelium removed, unless CORM-3 increased to 400 μM) was “did not respond to CORM-3 in the same way as intact vessels”, the “conversion of Mb to MbCO” value [2] was “formation of MbCO is observed” and the “loss of CO on incubation” value ([2]; incubating overnight at 37° C. in phosphate buffer at pH=7.4) was “rapidly lost”. The “decrease in MAP” value ([3]; CORM-3 30 μmoles/kg i.v. first injection, YC-1 1.2 μmoles/kg i.v. 5 min before) was 37.0±2.4 mmHg, the “decrease in MAP” value ([3]; CORM-3 30 μmoles/kg i.v. second injection, YC-1 1.2 μmoles/kg i.v. 5 min before first injection) was 22.0±2.3 mmHg and the “decrease in MAP” value ([3]; CORM-3 alone 30 μmoles/kg i.v., first injection, recorded 20 min after injection) was 9.4±2.8 mmHg. The “decrease in MAP” value ([3]; CORM-3 alone 30 μmoles/kg i.v., second bolus 20 min after the first) was 13.3±4.9 mmHg.

For [Fe(SPh)2(2,2′-bipyridine) (CO)2], the “dilatation of pre-contracted aortic rings” value [4] is given as “capable of promoting dilatation of pre-contracted aortic rings” and the “release of CO to myoglobin in solution” value [5] is given as “does not release CO to myoglobin in solution”.

In the case of `OCc1ccc(-c2nn(Cc3ccccc3)c3ccccc23)o1` [YC-1, 3-(5′-hydroxymethyl-2′-furyl)-1-benzyl-indazole, reference compound], the “change in vessel contractility” value ([1]; Example 4B, pre-treatment with YC-1 alone (1 μM, 30 min)) is listed as “did not cause any significant change in vessel contractility”, the “decrease in MAP” value ([3]; YC-1 1.2 μmoles/kg i.v., after 5 min, before CORM-3) is listed as 7.0±1.6 mmHg and the “inhibition of platelet aggregation” value [6] is listed as “complete inhibition of platelet aggregation”.

In the case of `[C-]#[O+]` [CO, carbon monoxide], the “conversion of Mb to MbCO” value [2] is listed as “rapid conversion to carbon monoxide myoglobin (MbCO)” and the “increase of enzymatic activity of purified guanylate cyclase” value [7] is listed as 4.4 fold.

For `[N]=O` [NO, nitric oxide], the “increase of enzymatic activity of purified guanylate cyclase” value [7] is listed as 130 fold.
